Measurements taken from ChEMBL document CHEMBL6083286, “Discovery of ERD-12310A as an Exceptionally Potent and Orally Efficacious PROTAC Degrader of Estrogen Receptor α (ERα)” (J Med Chem, 2024).
Active and inactive are the calls of the source. The rule behind the calls is not given here.

Columns and labels:
[1] = Metabolic stability mouse liver microsome assessed as half life; format: ADME; details: microsomes
[2] = Metabolic stability rat liver microsome assessed as half life; format: ADME; details: microsomes
[3] = Stability in rat plasma assessed as half life; format: ADME, cell-free
[4] = Stability in human plasma assessed as half life; format: ADME, cell-free
[5] = Half life in mouse at 3 mg/kg, po or 1 mg/kg, iv measured upto 24 hrs by LC-MS/MS analysis; format: ADME, organism-based; details: in vivo
[6] = Cmax in rat at 3 mg/kg, po or 1 mg/kg, iv measured upto 24 hrs by LC-MS/MS analysis; format: ADME, organism-based; details: in vivo
[7] = AUC (0 to infinity) in rat at 3 mg/kg, po or 1 mg/kg, iv measured upto 24 hrs by LC-MS/MS analysis; format: ADME, organism-based; details: in vivo
[8] = Volume of distribution at steady state in rat at 3 mg/kg, po or 1 mg/kg, iv measured upto 24 hrs by LC-MS/MS analysis; format: ADME, organism-based; details: in vivo
[9] = Oral bioavailability in rat at 3 mg/kg measured upto 24 hrs by LC-MS/MS analysis; format: ADME, organism-based; details: in vivo
[10] = Oral bioavailability in dog at 3 mg/kg measured upto 24 hrs by LC-MS/MS analysis; format: ADME, organism-based, Canis lupus familiaris; details: in vivo
[11] = target: T1, Cytochrome P450 2B6 (Homo sapiens, UniProt P20813); assay: Inhibition of CYP2B6 in human liver microsomes preincubated for 5 mins followed by NADPH addition and measured after 10 mins by LC-MS/MS analysis; format: ADME, Microsome
T1 sequence (P20813 whole entry): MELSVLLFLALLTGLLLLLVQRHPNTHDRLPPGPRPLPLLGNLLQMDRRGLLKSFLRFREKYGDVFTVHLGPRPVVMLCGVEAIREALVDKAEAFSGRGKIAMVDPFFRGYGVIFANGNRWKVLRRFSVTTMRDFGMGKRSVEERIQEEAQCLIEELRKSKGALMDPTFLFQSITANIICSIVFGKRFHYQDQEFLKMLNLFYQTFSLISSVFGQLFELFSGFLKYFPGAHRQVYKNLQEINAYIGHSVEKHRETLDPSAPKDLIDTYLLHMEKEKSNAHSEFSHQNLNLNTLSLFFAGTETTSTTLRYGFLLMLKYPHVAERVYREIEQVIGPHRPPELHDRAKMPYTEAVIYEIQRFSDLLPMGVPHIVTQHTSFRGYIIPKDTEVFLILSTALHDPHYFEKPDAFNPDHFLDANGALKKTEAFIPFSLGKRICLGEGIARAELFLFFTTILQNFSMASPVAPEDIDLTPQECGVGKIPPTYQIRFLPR

[12] = target: Cytochrome P450 2D6 (Homo sapiens, UniProt P10635); assay: Inhibition of CYP2D6 in human liver microsomes incubated for 5 mins in presence of NADPH by LC-MS/MS analysis; format: ADME, Microsome
Cytochrome P450 2D6, sequence (P10635 whole entry): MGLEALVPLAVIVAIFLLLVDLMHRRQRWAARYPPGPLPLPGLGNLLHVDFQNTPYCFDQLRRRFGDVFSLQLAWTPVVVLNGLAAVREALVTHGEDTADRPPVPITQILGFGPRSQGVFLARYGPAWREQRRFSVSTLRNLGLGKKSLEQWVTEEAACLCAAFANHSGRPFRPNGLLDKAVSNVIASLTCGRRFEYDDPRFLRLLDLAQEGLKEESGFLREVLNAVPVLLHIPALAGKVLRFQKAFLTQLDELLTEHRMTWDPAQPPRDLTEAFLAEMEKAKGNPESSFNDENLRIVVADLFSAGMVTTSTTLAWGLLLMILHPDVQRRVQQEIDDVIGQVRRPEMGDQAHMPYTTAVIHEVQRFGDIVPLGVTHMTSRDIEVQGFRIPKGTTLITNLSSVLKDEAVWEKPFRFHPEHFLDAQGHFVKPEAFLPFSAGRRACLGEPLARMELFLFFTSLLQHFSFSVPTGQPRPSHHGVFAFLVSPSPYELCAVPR

[13] = target: Cytochrome P450 3A4 (Homo sapiens, UniProt P08684); assay: Inhibition of CYP3A4 in human liver microsomes using testosterone as substrate preincubated for 5 mins followed by NADPH addition and measured after 10 mins by LC-MS/MS analysis; format: ADME, Microsome
Cytochrome P450 3A4, sequence (P08684 whole entry): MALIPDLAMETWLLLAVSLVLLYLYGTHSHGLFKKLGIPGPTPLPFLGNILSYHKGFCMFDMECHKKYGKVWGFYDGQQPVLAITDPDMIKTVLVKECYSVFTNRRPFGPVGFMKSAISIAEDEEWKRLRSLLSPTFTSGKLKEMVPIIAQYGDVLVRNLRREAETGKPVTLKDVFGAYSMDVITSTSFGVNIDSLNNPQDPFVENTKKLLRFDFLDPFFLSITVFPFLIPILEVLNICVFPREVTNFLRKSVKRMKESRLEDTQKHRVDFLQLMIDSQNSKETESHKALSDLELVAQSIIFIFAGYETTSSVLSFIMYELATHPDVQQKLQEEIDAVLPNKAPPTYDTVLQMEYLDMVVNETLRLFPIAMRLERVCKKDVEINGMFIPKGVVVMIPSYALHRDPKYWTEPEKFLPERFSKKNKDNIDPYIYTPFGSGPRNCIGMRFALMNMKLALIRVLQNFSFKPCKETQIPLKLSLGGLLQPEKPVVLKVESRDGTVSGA

[14] = target: Voltage-gated inwardly rectifying potassium channel KCNH2 (Homo sapiens, UniProt Q12809); assay: Inhibition of hERG in HEK293 cells by whole-cell patch clamp assay; format: toxicity, cell-based
Voltage-gated inwardly rectifying potassium channel KCNH2, sequence (Q12809 whole entry): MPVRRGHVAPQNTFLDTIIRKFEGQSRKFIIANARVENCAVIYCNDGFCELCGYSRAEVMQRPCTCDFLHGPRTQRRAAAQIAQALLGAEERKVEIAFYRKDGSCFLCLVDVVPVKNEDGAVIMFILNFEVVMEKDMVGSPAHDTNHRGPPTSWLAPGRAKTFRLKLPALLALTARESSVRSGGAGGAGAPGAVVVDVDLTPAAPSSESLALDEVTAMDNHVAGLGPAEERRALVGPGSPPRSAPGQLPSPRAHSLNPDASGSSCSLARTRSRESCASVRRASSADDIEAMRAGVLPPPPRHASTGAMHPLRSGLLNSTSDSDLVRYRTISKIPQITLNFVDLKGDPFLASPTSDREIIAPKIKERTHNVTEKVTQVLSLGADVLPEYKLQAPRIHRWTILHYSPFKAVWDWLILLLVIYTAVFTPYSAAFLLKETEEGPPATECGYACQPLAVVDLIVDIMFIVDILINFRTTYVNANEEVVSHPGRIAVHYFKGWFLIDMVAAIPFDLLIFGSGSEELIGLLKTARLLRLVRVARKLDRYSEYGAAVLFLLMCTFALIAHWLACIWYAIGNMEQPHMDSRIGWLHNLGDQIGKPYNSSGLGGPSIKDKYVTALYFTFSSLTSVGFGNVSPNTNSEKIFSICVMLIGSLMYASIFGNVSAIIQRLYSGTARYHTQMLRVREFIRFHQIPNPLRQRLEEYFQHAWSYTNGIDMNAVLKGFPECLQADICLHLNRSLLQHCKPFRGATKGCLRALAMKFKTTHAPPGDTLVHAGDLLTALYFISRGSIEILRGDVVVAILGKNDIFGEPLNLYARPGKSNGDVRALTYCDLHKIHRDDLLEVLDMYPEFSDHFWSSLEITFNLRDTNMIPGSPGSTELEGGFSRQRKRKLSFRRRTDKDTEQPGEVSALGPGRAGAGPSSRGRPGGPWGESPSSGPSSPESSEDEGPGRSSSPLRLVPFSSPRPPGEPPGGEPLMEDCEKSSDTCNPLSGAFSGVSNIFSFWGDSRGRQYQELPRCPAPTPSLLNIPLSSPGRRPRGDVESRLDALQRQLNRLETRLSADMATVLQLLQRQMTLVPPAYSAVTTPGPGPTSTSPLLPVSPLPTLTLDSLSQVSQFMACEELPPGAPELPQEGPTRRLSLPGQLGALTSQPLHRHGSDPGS

[15] = Plasma protein binding in human; format: ADME, cell-free
[16] = Plasma protein binding in rat; format: ADME, cell-free
[17] = Plasma protein binding in mouse; format: ADME, cell-free
[18] = target: T2, Protein cereblon/Estrogen receptor (Homo sapiens, UniProt P03372+Q96SW2); assay: PROTAC activity at CRBN/ERalpha in human MCF7 cells assessed as reduction in ERalpha protein level at 1 nM measured at 4 hrs by Western blot analysis; format: cell-based
T2 sequence (P03372 whole entry, looked up): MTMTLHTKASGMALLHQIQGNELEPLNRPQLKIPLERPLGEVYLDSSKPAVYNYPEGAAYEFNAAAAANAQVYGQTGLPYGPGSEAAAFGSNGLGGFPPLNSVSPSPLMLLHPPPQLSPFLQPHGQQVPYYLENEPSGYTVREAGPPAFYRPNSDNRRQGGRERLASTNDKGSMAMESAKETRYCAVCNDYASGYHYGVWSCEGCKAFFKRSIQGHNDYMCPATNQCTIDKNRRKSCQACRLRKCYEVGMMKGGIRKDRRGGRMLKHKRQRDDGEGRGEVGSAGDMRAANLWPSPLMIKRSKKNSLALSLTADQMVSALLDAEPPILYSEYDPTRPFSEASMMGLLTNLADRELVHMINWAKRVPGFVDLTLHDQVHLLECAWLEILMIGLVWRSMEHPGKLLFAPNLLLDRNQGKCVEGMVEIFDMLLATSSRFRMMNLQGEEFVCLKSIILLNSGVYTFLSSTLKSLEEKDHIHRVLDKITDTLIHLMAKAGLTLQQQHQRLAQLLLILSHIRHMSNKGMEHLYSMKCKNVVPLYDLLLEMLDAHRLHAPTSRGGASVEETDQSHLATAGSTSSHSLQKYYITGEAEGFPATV
T2 sequence (Q96SW2 whole entry, looked up): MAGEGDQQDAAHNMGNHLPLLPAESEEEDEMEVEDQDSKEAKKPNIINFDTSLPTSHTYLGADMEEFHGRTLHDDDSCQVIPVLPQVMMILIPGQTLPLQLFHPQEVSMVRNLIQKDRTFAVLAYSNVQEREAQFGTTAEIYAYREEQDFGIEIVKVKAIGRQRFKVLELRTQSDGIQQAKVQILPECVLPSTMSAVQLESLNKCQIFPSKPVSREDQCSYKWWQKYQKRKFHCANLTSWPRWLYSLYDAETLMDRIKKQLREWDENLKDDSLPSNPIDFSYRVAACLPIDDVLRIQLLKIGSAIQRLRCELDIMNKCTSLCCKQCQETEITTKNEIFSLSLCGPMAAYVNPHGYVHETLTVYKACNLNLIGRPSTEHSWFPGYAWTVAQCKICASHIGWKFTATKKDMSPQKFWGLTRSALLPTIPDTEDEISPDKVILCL

[19] = target: T2, Protein cereblon/Estrogen receptor; assay: PROTAC activity at CRBN/ERalpha in human T47D cells assessed as reduction in ERalpha protein level at 3 nM measured at 4 hrs by Western blot analysis; format: cell-based
[20] = target: T2, Protein cereblon/Estrogen receptor; assay: PROTAC activity at CRBN/ERalpha in human MCF7 cells assessed as reduction in ERalpha protein level at 5 nM measured for 4 hrs in presence of cereblon ligand C1 by Western blot analysis; format: cell-based
[21] = target: T2, Protein cereblon/Estrogen receptor; assay: PROTAC activity at CRBN/ERalpha in human MCF7 cells assessed as reduction in ERalpha protein level at 5 nM measured for 4 hrs in presence of PR-171 by Western blot analysis; format: cell-based
[22] = target: T2, Protein cereblon/Estrogen receptor; assay: PROTAC activity at CRBN/ERalpha in human MCF7 cells assessed as effect on GSPT1 level at 0.5 to 500 nM measured for 5 hrs by Western blot analysis; format: cell-based; details: dose 0.5-500 nM
[23] = target: T2, Protein cereblon/Estrogen receptor; assay: PROTAC activity at CRBN/ERalpha in human MCF7 cells assessed as reduction ER level measured for 5 hrs by Western blot analysis; format: cell-based; details: dose 0.5-500 nM
[24] = target: T2, Protein cereblon/Estrogen receptor; assay: PROTAC activity at CRBN/ERalpha in human MCF7 cells assessed as reduction ER level at 100 nM measured for 5 hrs by Western blot analysis; format: cell-based
[25] = target: T2, Protein cereblon/Estrogen receptor; assay: In-vivo PROTAC activity at CRBN/ERalpha in SCID mouse xenografted with human MCF7 cells assessed as reduction in ERalpha level in tumor at 10 mg/kg, po administered daily for 3 days and measured after 6 hrs by Western blot analysis; format: functional, organism-based; parameters: scale not given: the % may be the effect or the level left; details: time 78.0 hrs
[26] = target: T2, Protein cereblon/Estrogen receptor; assay: (§1) In-vivo PROTAC activity at CRBN/ERalpha in SCID mouse xenografted with human MCF7 cells assessed as reduction in ERalpha level in tumor at 30 mg/kg, po administered daily for 3 days and measured after 24 hrs by Western blot analysis; format: functional, organism-based; parameters: scale not given: the % may be the effect or the level left; details: time 96.0 hrs
[27] = Drug concentration in SCID mouse tumor at 10 mg/kg, po administered daily for 3 days and measured after 6 hrs by LC-MS/MS analysis; format: ADME, organism-based, Neoplasm; details: time 3 day, read-out: Ct
[28] = target: T2, Protein cereblon/Estrogen receptor; assay: as §1; format: functional, organism-based; parameters: scale not given: the % may be the effect or the level left; details: time 96.0 hrs; remark: listed apart in the source
[29] = Drug concentration in SCID mouse tumor at 30 mg/kg, po administered daily for 3 days and measured after 24 hrs by LC-MS/MS analysis; format: ADME, organism-based, Neoplasm; details: read-out: Ct
[30] = system: Protein cereblon/Estrogen receptor (Homo sapiens), P03372+Q96SW2 [Y537S]; assay: In vivo PROTAC activity at CRBN/ESR1 Y537S mutant in SCID mouse xenografted with human MCF7 cells assessed as reduction in ESR1 Y537S level in tumor at 10 to 30 mg/kg, po administered once daily for 3 days measured after 24 hrs by Western blot analysis; format: functional, organism-based; parameters: scale not given: the % may be the effect or the level left; details: dose 10-30 mg/kg, time […]
[31] = system: MCF7; assay: Antitumor activity against human MCF7 cells xenografted in SCID mouse assessed as tumor growth inhibition at 3 mg/kg, po administered for 41 to 76 days; format: functional; details: time 41-76 day, read-out: TGI
[32] = Drug concentration in SCID mouse tumor at 10 mg/kg, po administered once daily measured at 24 hrs by LC-MS/MS analysis; format: ADME, organism-based, Neoplasm; details: read-out: Ct
[33] = Drug concentration in SCID mouse tumor at 10 mg/kg, po administered once daily for 3 days measured after 24 hrs by LC-MS/MS analysis; format: ADME, organism-based, Neoplasm
[34] = Drug concentration in SCID mouse tumor at 30 mg/kg, po administered once daily for 3 days measured after 24 hrs by LC-MS/MS analysis; format: ADME, organism-based, Neoplasm; details: read-out: Ct

Which t1/2 [1] does the source give for O=C1CC[C@H](N2Cc3c(ccc4c3OCC43CCN(C[C@@H]4CCC5(CCN(c6ccc([C@@H]7c8ccc(O)cc8CC[C@@H]7c7ccccc7)cc6)CC5)OC4)CC3)C2=O)C(=O)N1 here?
The t1/2 was greater than 1 h.

And the t1/2 [2]?
Its t1/2 is greater than 1 h.

And the t1/2 [3]?
Its t1/2 is greater than 4 h.

And the t1/2 [4]?
Its t1/2 is greater than 4 h.

What about the t1/2 [5] of the same molecule?
The t1/2 was 13.3 h.

And the Cmax [6]?
Its Cmax is 57.7 ng/mL.

And the AUC [7]?
Its AUC is 583 ng·h/mL.

What about the Vdss [8] of the same molecule?
The Vdss was 1.9 L/kg.

And the F [9]?
Its F is 10%.

What about the F [10] of the same molecule?
Its F is 49%.

What about the IC50 [11] of the same molecule?
The IC50 was 2.5 µM.

And the IC50 [12]?
The IC50 was greater than 10 µM.

And the IC50 [13]?
Its IC50 is greater than 10 µM.

And the IC50 [14]?
Its IC50 is greater than 10 µM.

What about the PPB [15] of the same molecule?
The PPB was 98.9%.

And the PPB [16]?
The PPB was 95.7%.

And the PPB [17]?
Its PPB is 99%.

And the Activity [18]?
Its Activity is “Active”.

And the Activity [19]?
Its Activity is “Active”.

And the Activity [20]?
The Activity was “inactive”.

And the Activity [21]?
Its Activity is “inactive”.

And the Activity [22]?
The Activity was “Minimal_effect”.

What about the Activity [23] of the same molecule?
The Activity was “Dose-dependent-effect”.

And the Activity [24]?
The Activity was “No effect”.

And the Activity [25]?
Its Activity is 66%.

What about the Activity [26] of the same molecule?
The Activity was 71%.

And the concentration at 72 h [27]?
The concentration at 72 h was 975 ng/mL.

And the Activity [28]?
The Activity was 29%.

And the concentration at 96 h [29]?
The concentration at 96 h was 1090 ng/mL.

What about the Activity [30] of the same molecule?
The Activity was 74%.

What about the inhibition in vivo at 3 mg/kg [31] of the same molecule?
The inhibition in vivo at 3 mg/kg was 93%.

And the concentration at 24 h [32]?
The concentration at 24 h was 94 ng/mL.

What about the concentration at 96 h [33] of the same molecule?
The concentration at 96 h was 294 ng/mL.

And the concentration at 96 h [34]?
Its concentration at 96 h is 1030 ng/mL.
